Consider eleven compounds from US20230159527A1, “COMPOUNDS AS BCL-2 INHIBITORS” (Fochon Pharmaceuticals, Ltd., priority 2020, published 2023).

One test has as its system Toledo cells. Briefly: Cell proliferation assay, Toledo cells (MTS, 72 h). The format is cell-based. The settings on record: Homo sapiens, Toledo cells, MTS, read-out: Toledo IC50. The procedure:
MTS testing kit was purchased from Promega (Madison, Wis., USA). The RPMI-1640, Fetal bovine serum and Penicillin-Streptomycin were purchased from BI (Biological Industries, Beit Haemek, Israel). Dimethyl sulfoxide (DMSO) was purchased from Sigma (St. Louis, Mo., USA). Toledo (ATCC catalog #: CRL-2631) cells were cultured in RPMI-1640 supplemented with Penicillin-Streptomycin and 10% FBS.
To investigate whether a compound is able to inhibit the activity of BCL-2 in cells, a mechanism-based assay using Toledo lines was developed. In this assay, the inhibition of BCL-2 was reflected by the inhibition of cell proliferation of Toledo cells. Cells were plated into 96-well plates at the optimized cell density of 30000 cells/well. Plates were incubated at 37° C., with 5% CO2 for 4h. Compounds were serially diluted and added to the plates with the final concentrations of 10000, 3333.3, 1111.1, 370.4, 123.5, 41.2, 13.7, 4.6 and 1.5 nM. Plates were incubated at 37° C., with 5% CO2 for 72 h. 20 μl MTS was added into each well and the plates were incubated at 37° C., with 5% CO2 for exactly 2 h. The absorbance was measured by a microplate reader at 490 nm. IC50 was calculated using GraphPad Prism 5.0 software.
A word on the IC50: it is the concentration needed to halve the response being measured. On to `CC(C)c1ccccc1[C@@H]1CCCN1C1CC2(CCN(c3ccc(C(=O)NS(=O)(=O)c4cc5c(c([N+](=O)[O-])c4)N[C@@H]([C@H]4CC[C@](C)(O)CC4)CO5)c(Oc4cc5cc[nH]c5nc4N4CCC4)c3)CC2)C1` (single isomer, unassigned) [Example D-183, 2-((6-(azetidin-1-yl)-1H-pyrrolo [2,3-b]pyridin-5-yl)oxy)-N-(((S)-3-((1r,4S)-4-hydroxy-4-methylcyclohexyl)-5-nitro-3,4-dihydro-2H-benzo[b][1,4]oxazin-7-yl)sulfonyl)-4-(2-((R or S)-2-(2-isopropylphenyl)pyrrolidin-1-yl)-7-azaspiro[3.5]nonan-7-yl)benzamide], for which the IC50 came to 1 nM. Regarding `CC(C)c1ccccc1C1CCCN1C1CC2(CCN(c3ccc(C(=O)NS(=O)(=O)c4cc5c(c([N+](=O)[O-])c4)N[C@@H](C4CCC(F)(F)CC4)CO5)c(Oc4cnc5[nH]cc(F)c5c4)c3)CC2)C1` (single isomer, unassigned) [Example D-47, N-(((S)-3-(4,4-difluorocyclohexyl)-5-nitro-3,4-dihydro-2H-benzo [b][1,4]oxazin-7-yl)sulfonyl)-2-((3-fluoro-1H-pyrrolo[2,3-b]pyridin-5-yl)oxy)-4-(2-((R or S)-2-(2-isopropylphenyl)pyrrolidin-1-yl)-7-azaspiro[3.5]nonan-7-yl)benzamide], the IC50 came out at 1 nM. For the compound `CSc1nc2[nH]ccc2cc1Oc1cc(N2CCC3(CC2)CC(N2CCC[C@H]2c2ccccc2C(C)C)C3)ccc1C(=O)NS(=O)(=O)c1cc2c(c([N+](=O)[O-])c1)N[C@@H]([C@H]1CC[C@](C)(O)CC1)CO2` (single isomer, unassigned) [Example D-191, N-(((S)-3-((1r,4S)-4-hydroxy-4-methylcyclohexyl)-5-nitro-3,4-dihydro-2H-benzo[b][1,4]oxazin-7-yl)sulfonyl)-4-(2-((R or S)-2-(2-isopropylphenyl)pyrrolidin-1-yl)-7-azaspiro[3.5]nonan-7-yl)-2-((6-(methylthio)-1H-pyrrolo [2,3-b]pyridin-5-yl)oxy)benzamide], the IC50 was 1 nM.

As to `CC(C)c1ccccc1[C@H]1CCCN1C1CC2(CCN(c3ccc(C(=O)NS(=O)(=O)c4cc5c(c([N+](=O)[O-])c4)NC([C@@H]4COCCO4)CO5)c(Oc4cnc5[nH]cc(F)c5c4)c3)CC2)C1` (single isomer, unassigned) [Example D-49a, N-(((R or S)-3-((R)-1,4-dioxan-2-yl)-5-nitro-3,4-dihydro-2H-benzo[b][1,4]oxazin-7-yl)sulfonyl)-2-((3-fluoro-1H-pyrrolo[2,3-b]pyridin-5-yl)oxy)-4-(2-((R or S)-2-(2-isopropylphenyl)pyrrolidin-1-yl)-7-azaspiro[3.5]nonan-7-yl)benzamide], the half-maximal inhibitory concentration (IC50) amounted to 1 nM. Turning to `CC(C)c1ccccc1[C@@H]1CCCN1C1CC2(CCN(c3ccc(C(=O)NS(=O)(=O)c4cc5c(c([N+](=O)[O-])c4)N[C@@H]([C@H]4CC[C@](C)(O)CC4)CO5)c(Oc4cc5c(F)c[nH]c5nc4O[C@@H]4CCOC4)c3)CC2)C1` (single isomer, unassigned) [Example D-220, 2-((3-fluoro-6-(((R)-tetrahydrofuran-3-yl)oxy)-1H-pyrrolo[2,3-b]pyridin-5-yl)oxy)-N-((S)-3-((1r,4S)-4-hydroxy-4-methylcyclohexyl)-5-nitro-3,4-dihydro-2H-benzo [b][1,4]oxazin-7-yl)sulfonyl)-4-(2-((R or S)-2-(2-isopropylphenyl)pyrrolidin-1-yl)-7-azaspiro[3.5]nonan-7-yl)benzamide], the IC50 is 1 nM. For the compound `CC(C)c1ccccc1[C@H]1CCCN1C1CC2(CCN(c3ccc(C(=O)NS(=O)(=O)c4cc5c(c([N+](=O)[O-])c4)NC([C@H]4COCCO4)CO5)c(Oc4cnc5[nH]cc(F)c5c4)c3)CC2)C1` (single isomer, unassigned) [Example D-50a, N-(((R or S)-3-((S)-1,4-dioxan-2-yl)-5-nitro-3,4-dihydro-2H-benzo[b][1,4]oxazin-7-yl)sulfonyl)-2-((3-fluoro-1H-pyrrolo[2,3-b]pyridin-5-yl)oxy)-4-(2-((R or S)-2-(2-isopropylphenyl)pyrrolidin-1-yl)-7-azaspiro[3.5]nonan-7-yl)benzamide], the IC50 amounted to 1 nM. Take `CC(C)c1ccccc1[C@@H]1COCCN1C1CC2(CCN(c3ccc(C(=O)NS(=O)(=O)c4cnc(NC[C@H]5CC[C@](C)(O)CC5)c([N+](=O)[O-])c4)c(Oc4cnc5[nH]ccc5c4)n3)CC2)C1` (single isomer, unassigned) [Example A-145, 2-((1H-pyrrolo[2,3-b]pyridin-5-yl)oxy)-N-((6-((((1r,4r)-4-hydroxy-4-methylcyclohexyl)methyl)amino)-5-nitropyridin-3-yl)sulfonyl)-6-(2-((R or S)-3-(2-isopropylphenyl)morpholino)-7-azaspiro[3.5]nonan-7-yl)nicotina-mide]: the IC50 was found to be 1 nM. Consider `CC(C)c1ccccc1[C@@H]1CCC[C@@H]1N1CC2(CCN(c3ccc(C(=O)NS(=O)(=O)c4cc5c(c([N+](=O)[O-])c4)N[C@@H]([C@H]4CC[C@](C)(O)CC4)CO5)c(Oc4cc5cc[nH]c5nc4OC[C@@H]4COCCO4)c3)CC2)C1` (single isomer, unassigned) [Example D-258, 2-((6-(((S)-1,4-dioxan-2-yl)methoxy)-1H-pyrrolo[2,3-b]pyridin-5-yl)oxy)-N-((S)-3-((1r,4S)-4-hydroxy-4-methylcyclohexyl)-5-nitro-3,4-dihydro-2H-benzo[b][1,4]oxazin-7-yl)sulfonyl)-4-(2-((1S,2S or 1R,2R)-2-(2-isopropylphenyl)cyclopentyl)-2,7-diazaspiro[3.5] nonan-7-yl)benzamide], for which the IC50 worked out at 1 nM.

Staying with this test, now noted: Homo sapiens, Toledo, read-out: Toledo IC50 (nM).
Consider `CC(C)c1ccccc1[C@@H]1COCCN1C1CC2(CCN(c3ccc(C(=O)NS(=O)(=O)c4ccc(NC[C@H]5CC[C@](C)(O)CC5)c([N+](=O)[O-])n4)c(Oc4cnc5[nH]ccc5c4)c3)CC2)C1` (single isomer, unassigned) [Example C-1, 2-((1H-pyrrolo[2,3-b]pyridin-5-yl)oxy)-N-((5-((((1r,4r)-4-hydroxy-4-methylcyclohexyl)methyl)amino)-6-nitropyridin-2-yl)sulfonyl)-4-(2-((R or S)-3-(2-isopropylphenyl)morpholino)-7-azaspiro[3.5]nonan-7-yl) benzamide], for which the IC50 turned out to be 1 nM.

The same test, now with this note: Toledo cells, MTS, read-out: Toledo IC50.
As for `CC(C)c1ccccc1[C@H]1CCCN1C1CC2(CCN(c3ccc(C(=O)NS(=O)(=O)c4cc5c(c([N+](=O)[O-])c4)NC([C@H]4COCCO4)CO5)c(Oc4cnc5[nH]cc(F)c5c4)c3)CC2)C1` (single isomer, unassigned) [Example D-50b, N-(((R or S)-3-((S)-1,4-dioxan-2-yl)-5-nitro-3,4-dihydro-2H-benzo[b][1,4]oxazin-7-yl)sulfonyl)-2-((3-fluoro-1H-pyrrolo[2,3-b]pyridin-5-yl)oxy)-4-(2-((R or S)-2-(2-isopropylphenyl)pyrrolidin-1-yl)-7-azaspiro[3.5]nonan-7-yl)benzamide], the IC50 came to 1 nM. For the compound “N-(((S)-3-((1r,4S)-4-hydroxy-4- methylcyclohexyl)-5-nitro-3,4- dihydro-2H-benzo[b][1,4]oxazin-7- yl)sulfonyl)-4-(2-((R or S)- 2-(2-isopropylphenyl)pyrrolidin- 1-yl)-7-azaspiro[3.5]nonan-7- yl)-2-((6-(((R)-tetrahydrofuran-3- yl)oxy)-1H-pyrrolo[2,3-b]pyridin- 5-yl)oxy)benzamide [Example D-73]”, the IC50 amounted to 1 nM.
